Legend:
Assay in all cases: Upstate KinaseProfiler radio-enzymatic filter binding assay
Type in all cases: biochemical
Settings in all cases: 10 μM compound, remaining activity
[1] = biological target: T1, Bmx (Homo sapiens, UniProt P51813)
T1 construct: purchased Upstate
T1 sequence (P51813 1-675): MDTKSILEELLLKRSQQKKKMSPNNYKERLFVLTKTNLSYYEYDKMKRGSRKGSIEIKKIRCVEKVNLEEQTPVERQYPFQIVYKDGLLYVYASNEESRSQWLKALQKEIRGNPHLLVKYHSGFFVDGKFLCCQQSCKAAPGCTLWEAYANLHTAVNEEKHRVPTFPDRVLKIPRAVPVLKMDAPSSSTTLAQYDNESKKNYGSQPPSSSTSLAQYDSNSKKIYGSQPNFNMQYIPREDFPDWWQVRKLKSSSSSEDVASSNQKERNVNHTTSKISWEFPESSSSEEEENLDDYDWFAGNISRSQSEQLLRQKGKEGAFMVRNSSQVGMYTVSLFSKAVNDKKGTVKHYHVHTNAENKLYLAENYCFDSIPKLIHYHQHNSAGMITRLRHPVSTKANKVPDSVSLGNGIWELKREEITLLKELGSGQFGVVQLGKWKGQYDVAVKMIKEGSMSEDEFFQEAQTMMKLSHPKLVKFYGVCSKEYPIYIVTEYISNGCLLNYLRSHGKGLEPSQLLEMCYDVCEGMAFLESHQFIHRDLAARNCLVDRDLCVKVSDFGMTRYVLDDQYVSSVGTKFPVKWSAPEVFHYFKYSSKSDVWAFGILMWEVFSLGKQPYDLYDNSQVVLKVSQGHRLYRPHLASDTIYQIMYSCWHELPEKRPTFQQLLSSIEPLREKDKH
Procedure: (§1) Percentage inhibition is calculated for each reaction.

[2] = biological target: T2, Flt3 (Homo sapiens, UniProt P36888)
T2 construct: purchased Upstate
T2 sequence (P36888 27-993): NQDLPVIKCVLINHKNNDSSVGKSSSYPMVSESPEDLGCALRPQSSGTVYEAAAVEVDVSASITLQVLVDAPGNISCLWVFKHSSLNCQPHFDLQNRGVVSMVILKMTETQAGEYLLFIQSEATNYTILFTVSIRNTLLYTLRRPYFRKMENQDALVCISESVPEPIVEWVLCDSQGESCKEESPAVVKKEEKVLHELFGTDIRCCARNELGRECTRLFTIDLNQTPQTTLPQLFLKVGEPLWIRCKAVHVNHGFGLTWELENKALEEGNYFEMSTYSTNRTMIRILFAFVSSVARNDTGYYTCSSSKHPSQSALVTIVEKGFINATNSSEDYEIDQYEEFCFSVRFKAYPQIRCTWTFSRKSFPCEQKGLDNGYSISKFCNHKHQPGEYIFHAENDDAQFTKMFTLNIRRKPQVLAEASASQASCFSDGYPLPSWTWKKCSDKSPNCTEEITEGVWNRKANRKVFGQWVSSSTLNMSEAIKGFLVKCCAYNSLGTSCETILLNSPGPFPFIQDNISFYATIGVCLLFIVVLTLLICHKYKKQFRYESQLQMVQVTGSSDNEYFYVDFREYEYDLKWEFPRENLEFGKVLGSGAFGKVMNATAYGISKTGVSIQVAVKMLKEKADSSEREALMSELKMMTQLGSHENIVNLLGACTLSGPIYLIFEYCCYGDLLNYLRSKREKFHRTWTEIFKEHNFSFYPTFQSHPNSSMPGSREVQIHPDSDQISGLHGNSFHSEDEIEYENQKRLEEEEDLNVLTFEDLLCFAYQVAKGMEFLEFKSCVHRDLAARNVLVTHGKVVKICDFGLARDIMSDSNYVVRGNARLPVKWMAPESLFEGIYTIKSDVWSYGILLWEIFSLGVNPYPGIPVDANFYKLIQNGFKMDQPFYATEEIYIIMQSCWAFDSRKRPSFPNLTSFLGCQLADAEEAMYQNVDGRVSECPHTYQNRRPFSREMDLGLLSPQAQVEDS
Procedure: as §1

[3] = biological target: T3, Lck (Homo sapiens, UniProt P06239)
T3 construct: purchased Upstate
T3 sequence (P06239 whole entry): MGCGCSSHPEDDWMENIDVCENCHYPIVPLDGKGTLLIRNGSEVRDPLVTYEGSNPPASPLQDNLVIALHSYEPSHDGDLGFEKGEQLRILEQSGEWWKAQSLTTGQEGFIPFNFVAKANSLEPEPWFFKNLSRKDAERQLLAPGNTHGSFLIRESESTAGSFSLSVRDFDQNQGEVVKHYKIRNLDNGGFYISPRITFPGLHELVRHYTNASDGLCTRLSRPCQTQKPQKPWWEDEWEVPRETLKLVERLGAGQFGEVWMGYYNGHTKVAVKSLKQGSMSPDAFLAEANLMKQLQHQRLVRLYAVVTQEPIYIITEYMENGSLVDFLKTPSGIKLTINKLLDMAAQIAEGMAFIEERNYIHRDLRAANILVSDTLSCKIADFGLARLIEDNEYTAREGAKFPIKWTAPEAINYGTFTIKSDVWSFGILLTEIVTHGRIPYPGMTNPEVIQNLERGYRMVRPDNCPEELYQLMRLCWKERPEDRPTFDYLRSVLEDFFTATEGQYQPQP
Procedure: as §1

[4] = biological target: T4, SAPK2a (Homo sapiens, UniProt Q16539)
T4 construct: purchased Upstate
T4 sequence (Q16539 whole entry): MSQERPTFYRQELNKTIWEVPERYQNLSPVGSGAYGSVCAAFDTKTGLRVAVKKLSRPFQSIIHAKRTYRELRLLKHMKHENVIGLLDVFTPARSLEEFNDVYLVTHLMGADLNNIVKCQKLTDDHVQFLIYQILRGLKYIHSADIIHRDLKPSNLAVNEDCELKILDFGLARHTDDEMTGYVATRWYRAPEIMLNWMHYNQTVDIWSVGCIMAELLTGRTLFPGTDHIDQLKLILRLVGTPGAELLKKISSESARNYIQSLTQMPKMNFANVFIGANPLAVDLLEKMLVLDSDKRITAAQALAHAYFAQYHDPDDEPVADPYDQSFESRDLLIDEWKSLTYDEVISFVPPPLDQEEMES
Procedure: as §1

Measured: kinase activity

O=C(Nc1cccc(Nc2cc(Nc3cccc(C(F)(F)F)c3)ncn2)c1)C1CC1 [Example 1, Cyclopropanecarboxylic acid {3-[6-(3-trifluoromethyl-phenylamino)-pyrimidin-4-ylamino]-phenyl}-amide]
less than 50%: all assays above
